Data as given in patent US7087642B2 (priority 1999, dated 2006).
Read-outs that look alike come from different tables or passages of the source.

Tests used:
human PBMC T cells = assay: cells; format: cell-based; details: Homo sapiens, 72 h, read-out: T-cells (IC50)
IMPDH human type II = IMPDH human type II (Homo sapiens, UniProt P12268); assay: biochemical
human PBMC B cells = assay: cells; format: cell-based; details: Homo sapiens, 72 h, read-out: B-cells (IC50)

`COc1cc(NC(=O)Nc2cccc(CNC(=O)O[C@H](CN(CC(C)C)C(C)C)c3ccccc3)c2)ccc1-c1cnco1` [Compound 109] was tested, and the IC50 (human PBMC T cells) was 100 to 1000 nM, the Ki (IMPDH human type II; read-out: Ki) was greater than 50 nM and the IC50 (human PBMC B cells) was 100 to 1000 nM.
`COc1cc(NC(=O)Nc2cccc(CNC(=O)O[C@H](CN(CC3CC3)C(C)C)c3ccccc3)c2)ccc1-c1cnco1` [Compound 110] gave an IC50 (human PBMC T cells) of 100 to 1000 nM, a Ki (IMPDH human type II; read-out: Ki) greater than 50 nM and an IC50 (human PBMC B cells) of less than 100 nM.
`CCCN(CC(C)C)CC(OC(=O)NCc1cccc(NC(=O)Nc2ccc(-c3cnco3)c(OC)c2)c1)c1ccccc1` (stereo not drawn) [Compound 112] was tested, and the IC50 (human PBMC T cells) was greater than 1000 nM, the Ki (IMPDH human type II; read-out: Ki) was greater than 50 nM and the IC50 (human PBMC B cells) was greater than 1000 nM.
`CCCN(CCC)CC(OC(=O)NCc1cccc(NC(=O)Nc2ccc(-c3cnco3)c(OC)c2)c1)c1ccccc1` (stereo not drawn) [Compound 113] was tested, and the IC50 (human PBMC T cells) was greater than 1000 nM, the Ki (IMPDH human type II; read-out: Ki) was greater than 50 nM and the IC50 (human PBMC B cells) was greater than 1000 nM.
Work on `CCCN(CC1CC1)CC(OC(=O)NCc1cccc(NC(=O)Nc2ccc(-c3cnco3)c(OC)c2)c1)c1ccccc1` (stereo not drawn) [Compound 114] yielded an IC50 (human PBMC T cells) greater than 1000 nM, a Ki (IMPDH human type II; read-out: Ki) greater than 50 nM and an IC50 (human PBMC B cells) greater than 1000 nM.
`CCN(CC(C)C)CC(OC(=O)NCc1cccc(NC(=O)Nc2ccc(-c3cnco3)c(OC)c2)c1)c1ccccc1` (stereo not drawn) [Compound 115] gave an IC50 (human PBMC T cells) greater than 1000 nM, a Ki (IMPDH human type II; read-out: Ki) greater than 50 nM and an IC50 (human PBMC B cells) greater than 1000 nM.
For `COc1cc(NC(=O)Nc2cccc(CNC(=O)OC(CN(CC(C)C)CC(C)C)c3ccccc3)c2)ccc1-c1cnco1` (stereo not drawn) [Compound 116], the IC50 (human PBMC T cells) was greater than 1000 nM, the Ki (IMPDH human type II; read-out: Ki) was greater than 50 nM and the IC50 (human PBMC B cells) was greater than 1000 nM.
`COc1cc(NC(=O)Nc2cccc(CNC(=O)OC(CN(CC(C)C)CC3CC3)c3ccccc3)c2)ccc1-c1cnco1` (stereo not drawn) [Compound 117] was tested, and the IC50 (human PBMC T cells) was greater than 1000 nM, the Ki (IMPDH human type II; read-out: Ki) was greater than 50 nM and the IC50 (human PBMC B cells) was greater than 1000 nM.
Compound `CCCN(C)CCC(OC(=O)NCc1cccc(NC(=O)Nc2ccc(-c3cnco3)c(OC)c2)c1)c1ccccc1` (stereo not drawn) [Compound 118] has an IC50 (human PBMC T cells) of 100 to 1000 nM, a Ki (IMPDH human type II; read-out: Ki) greater than 50 nM and an IC50 (human PBMC B cells) of 100 to 1000 nM.
`CCCN(CC)CCC(OC(=O)NCc1cccc(NC(=O)Nc2ccc(-c3cnco3)c(OC)c2)c1)c1ccccc1` (stereo not drawn) [Compound 119] gave an IC50 (human PBMC T cells) of 100 to 1000 nM, a Ki (IMPDH human type II; read-out: Ki) greater than 50 nM and an IC50 (human PBMC B cells) of 100 to 1000 nM.
`CCCN(CCC(OC(=O)NCc1cccc(NC(=O)Nc2ccc(-c3cnco3)c(OC)c2)c1)c1ccccc1)CC(C)C` (stereo not drawn) [Compound 120] showed an IC50 (human PBMC T cells) greater than 1000 nM, a Ki (IMPDH human type II; read-out: Ki) greater than 50 nM and an IC50 (human PBMC B cells) greater than 1000 nM.
`CCCN(CCC(OC(=O)NCc1cccc(NC(=O)Nc2ccc(-c3cnco3)c(OC)c2)c1)c1ccccc1)CC1CC1` (stereo not drawn) [Compound 122] showed an IC50 (human PBMC T cells) greater than 1000 nM, a Ki (IMPDH human type II; read-out: Ki) greater than 50 nM and an IC50 (human PBMC B cells) greater than 1000 nM.
`CCCN(CCC)CCC(OC(=O)NCc1cccc(NC(=O)Nc2ccc(-c3cnco3)c(OC)c2)c1)c1ccccc1` (stereo not drawn) [Compound 123] showed an IC50 (human PBMC T cells) greater than 1000 nM, a Ki (IMPDH human type II; read-out: Ki) greater than 50 nM and an IC50 (human PBMC B cells) greater than 1000 nM.
`CCN(CCC(OC(=O)NCc1cccc(NC(=O)Nc2ccc(-c3cnco3)c(OC)c2)c1)c1ccccc1)CC(C)C` (stereo not drawn) [Compound 125] showed an IC50 (human PBMC T cells) of 100 to 1000 nM, a Ki (IMPDH human type II; read-out: Ki) greater than 50 nM and an IC50 (human PBMC B cells) of 100 to 1000 nM.
With `COc1cc(NC(=O)Nc2cccc(CNC(=O)OC(CCN(CC(C)C)CC(C)C)c3ccccc3)c2)ccc1-c1cnco1` (stereo not drawn) [Compound 126] the IC50 (human PBMC T cells) was greater than 1000 nM, the Ki (IMPDH human type II; read-out: Ki) was greater than 50 nM and the IC50 (human PBMC B cells) was greater than 1000 nM.
Work on `COc1cc(NC(=O)Nc2cccc(CNC(=O)OC(CCN(CC(C)C)CC3CC3)c3ccccc3)c2)ccc1-c1cnco1` (stereo not drawn) [Compound 127] yielded an IC50 (human PBMC T cells) greater than 1000 nM, a Ki (IMPDH human type II; read-out: Ki) greater than 50 nM and an IC50 (human PBMC B cells) greater than 1000 nM.
With `COc1cc(NC(=O)Nc2cccc(CNC(=O)OC(CCN(C)C(C)C)c3ccccc3)c2)ccc1-c1cnco1` (stereo not drawn) [Compound 128] the IC50 (human PBMC T cells) was 100 to 1000 nM, the Ki (IMPDH human type II; read-out: Ki) was greater than 50 nM and the IC50 (human PBMC B cells) was 100 to 1000 nM.
In the case of `CCN(CCC(OC(=O)NCc1cccc(NC(=O)Nc2ccc(-c3cnco3)c(OC)c2)c1)c1ccccc1)C(C)C` (stereo not drawn) [Compound 129], the IC50 (human PBMC T cells) is reported as 100 to 1000 nM, the Ki (IMPDH human type II; read-out: Ki) is reported as greater than 50 nM and the IC50 (human PBMC B cells) is reported as 100 to 1000 nM.
`COc1cc(NC(=O)Nc2cccc(CNC(=O)OC(CCN(CC(C)C)C(C)C)c3ccccc3)c2)ccc1-c1cnco1` (stereo not drawn) [Compound 130] gave an IC50 (human PBMC T cells) of 100 to 1000 nM, a Ki (IMPDH human type II; read-out: Ki) greater than 50 nM and an IC50 (human PBMC B cells) greater than 1000 nM.
For `COc1cc(NC(=O)Nc2cccc(CNC(=O)OC(CCN(CC3CC3)C(C)C)c3ccccc3)c2)ccc1-c1cnco1` (stereo not drawn) [Compound 131], the IC50 (human PBMC T cells) was 100 to 1000 nM, the Ki (IMPDH human type II; read-out: Ki) was greater than 50 nM and the IC50 (human PBMC B cells) was 100 to 1000 nM.
For `CCN(CC)CC(OC(=O)Nc1ccc(NC(=O)Nc2ccc(-c3cnco3)c(OC)c2)cc1)C(C)(C)C` (stereo not drawn) [Compound 132], the IC50 (human PBMC T cells) was 100 to 1000 nM, the Ki (IMPDH human type II; read-out: Ki) was greater than 50 nM and the IC50 (human PBMC B cells) was 100 to 1000 nM.
Compound `CCN(CC(OC(=O)NCc1cccc(NC(=O)Nc2ccc(-c3cnco3)c(OC)c2)c1)C1CCCCC1)C(C)C` (stereo not drawn) [Compound 158] has an IC50 (human PBMC T cells) greater than 1000 nM, a Ki (IMPDH human type II; read-out: Ki) of 10 to 50 nM and an IC50 (human PBMC B cells) of 100 to 1000 nM.
In the case of `CC[C@H](CCC#N)OC(=O)N[C@@H](C)c1cccc(NC(=O)Nc2ccc(C#N)c(OC)c2)c1` [Compound 162], the IC50 (human PBMC T cells) is reported as 100 to 1000 nM, the Ki (IMPDH human type II; read-out: Ki) is reported as 10 to 50 nM and the IC50 (human PBMC B cells) is reported as 100 to 1000 nM.
`CCC(CC#N)OC(=O)NC(C)c1cccc(NC(=O)Nc2ccc(-c3cnco3)c(OC)c2)c1` (stereo not drawn) [Compound 163] was tested, and the IC50 (human PBMC T cells) was less than 100 nM, the Ki (IMPDH human type II; read-out: Ki) was 10 to 50 nM and the IC50 (human PBMC B cells) was less than 100 nM.
Work on `CCN(CC)C[C@@H](OC(=O)NC(C)c1cccc(NC(=O)Nc2ccc(-c3cnco3)c(OC)c2)c1)c1ccccc1` (stereo partly drawn) [Compound 166] yielded an IC50 (human PBMC T cells) of 100 to 1000 nM, a Ki (IMPDH human type II; read-out: Ki) greater than 50 nM and an IC50 (human PBMC B cells) of 100 to 1000 nM.
Work on `CC[C@H](CC#N)OC(=O)N[C@@H](C)c1cccc(NC(=O)Nc2ccc(C#N)c(OC)c2)c1` [Compound 169] yielded an IC50 (human PBMC T cells) of less than 100 nM, a Ki (IMPDH human type II) of less than 10 nM and an IC50 (human PBMC B cells) of less than 100 nM.
